Experimental data from article PMC4820820, “CETSA screening identifies known and novel thymidylate synthase inhibitors and slow intracellular activation of 5-fluorouracil” (Nature Communications, 2016).

Columns and labels:
TS [1] = target: T1, TS (Homo sapiens, UniProt P04818); assay: Surface plasmon resonance; assay type: binding; set-up: His6 tag with TEV site (vector-encoded by pNIC28-Bsa4); made in house; host or cells: Rosetta BL21-DE3 Escherichia coli; conditions: 200 μM dUMP, 20 nM to 10 μM compound; signal does not saturate
Method: A concentration series (20 nM to 10 μM) of CBK115334 was injected over the prepared surface for 60 s and allowed to dissociate for 60 s with a flow rate of 70 μl min^−1 at 25 °C. The assay buffer was 20 mM HEPES, 150 mM NaCl, pH 7.5 and 0.005% Tween-20 supplemented with 1% DMSO and 200 μM dUMP. Response data was processed using the BIAevaluation software. Responses were double referenced and solvent-corrected. The data sets were fitted to 1:1 steady-state model for determination of binding constants.
Target sequence in this assay (P04818 whole entry): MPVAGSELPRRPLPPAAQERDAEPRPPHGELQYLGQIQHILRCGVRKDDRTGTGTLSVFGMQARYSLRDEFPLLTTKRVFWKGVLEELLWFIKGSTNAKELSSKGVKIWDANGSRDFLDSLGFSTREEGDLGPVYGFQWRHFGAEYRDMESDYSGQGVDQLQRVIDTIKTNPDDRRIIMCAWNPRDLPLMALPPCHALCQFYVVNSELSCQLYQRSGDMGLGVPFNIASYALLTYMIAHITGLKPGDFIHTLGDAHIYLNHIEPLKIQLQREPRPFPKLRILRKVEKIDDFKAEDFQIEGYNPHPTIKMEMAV

TS [2] = target: T1, TS; assay: TS enzyme inhibition assay; assay type: biochemical; set-up: His6 tag with TEV site (vector-encoded by pNIC28-Bsa4); made in house; host or cells: Rosetta BL21-DE3 Escherichia coli
Method: Enzymatic activity of recombinant human TS was measured spectrophotometrically at 340 nm by monitoring the absorbance change during the conversion of 5,10-methylenetetrahydrofolate to dihydrofolate using an Infinite M200 spectrometer (Tecan). Measurements were carried out at room temperature and in a buffer of 50 mM Tris at pH 7.5 and 150 mM NaCl. Initial velocities were measured with 250 nM of purified protein, 100 μM 5,10-methylenetetrahydrofolate and 100 μM dUMP in the presence of compounds using the same amount of DMSO as control. Initial rates and activity were analyzed with the software package Prism (GraphPad Software).
Decitabine at a concentration of 1 mM was incubated with 1 mg ml^−1 of recombinant DCK and 2.5 mM ATP in a buffer of 50 mM Tris at pH 7.5, 150 mM NaCl and 0.5 mM MgCl2 at room temperature for 60 min to generate the corresponding monophosphates. To probe for nucleotide deamination the samples were further treated with 1 mg ml^−1 of recombinant DCTD in the presence of 1 mM ATP and 10 μM ZnCl2 for 20 min at room temperature. After incubation, the samples were heated at 95 °C for 10 min and centrifuged for 10 min at the highest speed at 4 °C using a benchtop centrifuge. The supernatant was tested without dilution in thermal shift in vitro assays and the TS enzyme inhibition assay. The supernatants from samples without nucleoside were used as the treatment controls.
Target sequence in this assay (P04818 whole entry): as above

[3] = target: T2, human thymidylate synthase (TS) (Homo sapiens, UniProt P04818); assay: ITDRF CETSA at 50 °C, AlphaScreen detection, live K562 cells; assay type: cell-based; conditions: 2 h preincubation, 50 °C, unit taken from curve axis log [cmp] (M), read-out: ITDRF CETSA (hit confirmation)
T2 construct: screening in live, non-engineered cells expressing thymidylate synthase; endogenous in cells; host or cells: K562 (human myelogenous leukemia) cells
Method: For the […] experiments 11-point dose-response curves with three-fold difference in concentration between wells were generated using the Bravo liquid handling system (all serial dilutions were done in 100% DMSO). […] The concentration of DMSO was 0.5% in all samples. […] The assay ready plates were prepared as outlined above for the screen.
The screen procedure started with the addition of 5 μl of a suspension of K562 cells at a density of 10 million cells per ml to all wells of a 384 well hardshell PCR plate (HSR480, BIORAD) using an electronic multichannel pipette (Biohit). […] For the time-course experiments the incubation times were altered to include also 10 min, 30 min and 6 h. […] After the incubation step the plates were transiently heated at 50 °C for 3 min followed by a controlled cooling to 20 °C for 1 min using a real-time PCR machine (LightCycler480 system, Roche). Plate handling was then as described above for the thermal aggregation experiments. The data were analyzed using microsoft excel and GraphPad Prism 6.
A calculation of the average and standard error of means for each set of controls also allowed an illustration of how these responses varied over the 32 screening plates. The Z′ factor[38] is commonly used as a measure of how well the assay separates between the controls and this was calculated as described based on the calculated averages and standard deviations of the controls on a per plate basis. For the Tagg shift and the […] experiments the data were analyzed in GraphPad Prism using the Boltzmann sigmoid equation and the saturation binding curve (rectangular hyperbola; binding isotherm) function, respectively. As already discussed[14] these methods make use of equilibrium models for data analysis although the methodology depends on the irreversible aggregation of denatured material. For this reason we refer to the observed responses as apparent and isothermal dose-response fingerprints and are careful with any quantitative interpretations, being well aware of their dependency on experimental conditions. Experiments are on-going to address the quantitative interpretation of CETSA data.

TS [4] = target: T1, TS; assay: Western blot ITDRF CETSA of decitabine with or without DCK inhibitor DI-82, K562 cells; assay type: cell-based; set-up: screening in live, non-engineered cells expressing thymidylate synthase; endogenous in cells; host or cells: K562 (human myelogenous leukemia) cells
Method: K562 cells were treated with each respective compound concentrations and one vehicle as control in 100 μl aliquots in 0.2 ml tubes for 2 h in an incubator at 37 °C and 5% CO2. The cell aliquots were heated at 50 °C and analyzed with western blot following the procedure described above.
For the decitabine metabolism, decitabine was serially diluted to generate an 11 point dose–response curve and an […] experiment was performed as described above in absence and presence of 200 μM of the DCK inhibitor DI-82 (referred to as 12R in the main text of the original publication and DI-82 in the Supplementary Material)[34].
NuPage Novex Bis-Tris 4–12% polyacrylamide gels with NuPAGE MES SDS running buffer (Life Technologies) were used for separation of proteins in the samples. Proteins were transferred to nitrocellulose membranes using the iBlot2 blotting system (Life Technologies). Primary antibodies anti-TS (D5B3) XP (Cell Signaling), anti-dCK (sc-393099), anti-β-actin (sc-69879); secondary goat anti-mouse HRP-IgG (sc-2055) and bovine anti-rabbit HRP-IgG (sc-2374) antibodies (Santa Cruz Biotechnology, Santa Cruz, CA, USA) were used for immunoblotting. […] Chemiluminescence intensities were detected and quantified using a ChemiDoc XRS+ imaging system (Bio-Rad) with Image Lab software (Bio-Rad).
Target sequence in this assay (P04818 2-313 limits assumed): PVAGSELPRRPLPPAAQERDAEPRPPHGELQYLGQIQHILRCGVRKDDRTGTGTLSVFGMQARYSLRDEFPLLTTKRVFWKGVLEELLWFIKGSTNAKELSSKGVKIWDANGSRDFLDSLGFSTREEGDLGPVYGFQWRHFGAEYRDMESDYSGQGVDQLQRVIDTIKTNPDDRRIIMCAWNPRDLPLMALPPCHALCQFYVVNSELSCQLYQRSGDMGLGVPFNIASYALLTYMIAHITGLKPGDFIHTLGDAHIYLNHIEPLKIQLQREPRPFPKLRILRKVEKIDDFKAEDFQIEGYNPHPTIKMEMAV

T2 sequence (P04818 2-313 limits assumed): as above

binding to TS by surface plasmon resonance (steady state affinity) (TS [1])	inhibition at 10 µM (TS [2]; 10 μM compound, read-out: inhibition of TS enzymatic activity)	inhibition of TS enzymatic activity (TS [2]; 100 μM compound)	Structure (SMILES)	EC50 [3]	stabilization of TS (ITDRFCETSA) (TS [4]; in absence of DI-82, K562 cells)	ability to bind TS (ITDRFCETSA) (TS [4]; in presence of 200 μM DI-82, K562 cells)	inhibition in TS enzymatic assay (TS [2]; decitabine sample after DCK treatment)	inhibition in TS enzymatic assay (TS [2]; decitabine sample after treatment with both DCK and DCTD)
low μM range	60%	near complete inhibition	Cc1cc(O)nc2sc(C(=O)c3ccccc3)c(N)c12 [CBK115334, 3-amino-2-benzoyl-4-methylthieno(2,3-b)pyridin-6-ol]					
			Nc1ncn([C@H]2C[C@H](O)[C@@H](CO)O2)c(=O)n1 [decitabine, 5-Aza-deoxycytidine]	6.87e-08 M	Dose-dependent stabilization	completely blunted	minor inhibition	near full inhibition
